What was measured:
[1] = system: antibodies in sera from SARS patients (sera 1a, 1b, 2, 6, 37, 62, London, SARS-yellow, SARS-green); format: binding, human; set-up: Binding of serum 6 to linear peptides of protein X1 of SARS-CoV Urbani / Binding of serum 37 to linear peptides of protein X1 of SARS-CoV Urbani / Binding of serum 6 to looped/cyclic peptide (PEPSCAN-ELISA) / Binding of serum 37 to looped/cyclic peptide (PEPSCAN-ELISA) / Binding of serum 37 to looped/cyclic peptides of protein X1 of SARS-CoV Urbani / Binding of serum 6 to linear peptides of protein X2 / Binding of serum 37 to linear peptides of protein X2 / Binding of serum 37 to looped/cyclic peptides of protein X2 of SARS-CoV Urbani / Binding of serum 6 to linear peptides of protein M of SARS-CoV Urbani / Binding of serum 37 to linear peptides of protein M of SARS-CoV Urbani / Binding of serum 6 to looped/cyclic peptides of protein M of SARS-CoV Urbani / Binding of serum 37 to looped/cyclic peptides of protein M of SARS-CoV Urbani / Binding of serum 6 to linear peptides of protein X3 of SARS-CoV Urbani / Binding of serum 37 to linear peptides of protein X3 of SARS-CoV Urbani / Binding of serum 37 to looped/cyclic peptides of protein X3 of SARS-CoV Urbani / Binding of serum 6 to linear peptides of protein X4 of SARS-CoV Urbani / Binding of serum 37 to linear peptides of protein X4 of SARS-CoV Urbani / Binding of serum 37 to looped/cyclic peptides of protein X4 of SARS-CoV Urbani / Binding of serum 6 to linear peptides of protein X5 of SARS-CoV Urbani / Binding of serum 37 to linear peptides of protein X5 of SARS-CoV Urbani / Binding of serum 37 to looped/cyclic peptides of protein X5 of SARS-CoV Urbani / Binding of serum 6 to linear peptides of protein N of SARS-CoV Urbani / Binding of serum 37 to linear peptides of protein N of SARS-CoV Urbani / Binding of serum 6 to linear peptide (PEPSCAN-ELISA) / Binding of serum 1a to looped/cyclic peptides of protein N of SARS-CoV Urbani / Binding of serum 1b to looped/cyclic peptides of protein N of SARS-CoV Urbani / Binding of serum 2 to looped/cyclic peptides of protein N of SARS-CoV Urbani / Binding of serum 6 to looped/cyclic peptides of protein N of SARS-CoV Urbani / Binding of serum 37 to looped/cyclic peptides of protein N of SARS-CoV Urbani / Binding of serum 62 to looped/cyclic peptides of protein N of SARS-CoV Urbani / Binding of serum London to looped/cyclic peptides of protein N of SARS-CoV Urbani / Binding of serum SARS-green to looped/cyclic peptides of protein N of SARS-CoV Urbani: unit not given here
[2] = system: recombinant human anti-SARS-CoV antibody 03-018; format: binding; set-up: Binding of antibody 03-018 to linear peptides of the N protein of SARS-CoV Urbani / Binding of antibody 03-018 to looped/cyclic peptides of the N protein of SARS-CoV Urbani: unit not given here
[3] = system: rabbit serum obtained by immunizing a rabbit with the SARS-CoV strain Frankfurt 1; format: binding; set-up: Binding of a rabbit serum to linear peptides / Binding of a rabbit serum to looped peptides / Rabbit serum linear peptides / Rabbit serum looped peptides / Binding of a rabbit serum to linear peptides of protein N of SARS-CoV Urbani (Rabbit serum linear peptides) / Binding of a rabbit serum to looped/cyclic peptides of protein N of SARS-CoV Urbani (Rabbit serum looped peptides): unit not given here
[4] = system: control sera (pooled serum of ten healthy LUMC hospital workers; commercial negative donor pooled serum from the Dutch bloodbank); format: binding, human; set-up: Binding of Control serum LUMC to linear peptides / Binding of Control serum Blood-bank to linear peptides / Binding of Control serum LUMC to looped peptides / Binding of Control Serum Blood-Bank to Looped peptides / Binding of Control serum LUMC to linear peptides of the protein M of SARS-CoV Urbani / Binding of Control serum Blood-bank to linear peptides of the protein M of SARS-CoV Urbani / Binding of Control serum LUMC to looped peptides of the protein M of SARS-CoV Urbani / Binding of Control Serum Blood-Bank to Looped peptides of the protein M of SARS-CoV Urbani: unit not given here

Sequence	Binding of serum 1a to linear peptide (PEPSCAN-ELISA) [1]	Binding of serum 1a to looped/cyclic peptides of protein N of SARS-CoV Urbani [1]	Binding of serum 1b to linear peptide (PEPSCAN-ELISA) [1]	Binding of serum 1b to looped/cyclic peptides of protein N of SARS-CoV Urbani [1]	Binding of serum 2 to linear peptide (PEPSCAN-ELISA) [1]	Binding of serum 2 to looped/cyclic peptides of protein N of SARS-CoV Urbani [1]	Binding of serum 6 to looped/cyclic peptides of protein N of SARS-CoV Urbani [1]	Binding of serum 37 to looped/cyclic peptides of protein N of SARS-CoV Urbani [1]	Binding of serum 62 to looped/cyclic peptides of protein N of SARS-CoV Urbani [1]	Binding of serum London to looped/cyclic peptides of protein N of SARS-CoV Urbani [1]	Binding of serum SARS-green to looped/cyclic peptides of protein N of SARS-CoV Urbani [1]	Binding of serum SARS-yellow to looped/cyclic peptides of protein N of SARS-CoV Urbani [1]	Binding of antibody 03-018 to linear peptides of the N protein of SARS-CoV Urbani [2]	Binding of antibody 03-018 to looped/cyclic peptides of the N protein of SARS-CoV Urbani [2]	Binding of Control Serum Blood-Bank to Looped peptides [4]	Binding of Control serum Blood-bank to linear peptides [4]	Binding of Control serum LUMC to linear peptides [4]	Binding of Control serum LUMC to looped peptides [4]	Binding of a rabbit serum to linear peptides of protein N of SARS-CoV Urbani (Rabbit serum linear peptides) [3]	Binding of a rabbit serum to looped/cyclic peptides of protein N of SARS-CoV Urbani (Rabbit serum looped peptides) [3]	also measured
ATKQYNVTQAFGRRG	0.3	0.4	0.2	0.3	0.2	0.5	0.5	0.7	0.7	1.2	0.2	0.8	0.1	0.3	0.8	0.9	0.8	0.8			Binding of serum 6 to linear peptide (PEPSCAN-ELISA) [1]: 0.2; Binding of serum 37 to linear peptide (PEPSCAN-ELISA) [1]: 0.7; Binding of serum 62 to linear peptide (PEPSCAN-ELISA) [1]: 0.6; Binding of serum London to linear peptide (PEPSCAN-ELISA) [1]: 0.5; Binding of serum SARS-green to linear peptide (PEPSCAN-ELISA) [1]: 0.3; Binding of serum SARS-yellow to linear peptide (PEPSCAN-ELISA) [1]: 0.8; Recognition of the peptide by the rabbit serum [3]: recognized
SRSSSRSRGNSRNST	0.2	0.3	0.1	0.2	0.2	0.3	0.3	0.5	0.4	0.4	0.2	0.4	0.1	0.2	0.6	0.7	0.7	0.6	0.1	0.3	Binding of serum 6 to linear peptide (PEPSCAN-ELISA) [1]: 0.2; Binding of serum 37 to linear peptide (PEPSCAN-ELISA) [1]: 0.4; Binding of serum 62 to linear peptide (PEPSCAN-ELISA) [1]: 0.6; Binding of serum London to linear peptide (PEPSCAN-ELISA) [1]: 0.4; Binding of serum SARS-green to linear peptide (PEPSCAN-ELISA) [1]: 0.2; Binding of serum SARS-yellow to linear peptide (PEPSCAN-ELISA) [1]: 0.7
RQLQNSMSGASADST		0.2		0.1		0.3	0.1	0.4	0.2	0.2	0.1	0.2	0.1	0.2					0.5	0.3	Binding of serum 1a to linear peptides of protein N of SARS-CoV Urbani [1]: 0.2; Binding of serum 1b to linear peptides of protein N of SARS-CoV Urbani [1]: 0.2; Binding of serum 2 to linear peptides of protein N of SARS-CoV Urbani [1]: 0.2; Binding of serum 6 to linear peptides of protein N of SARS-CoV Urbani [1]: 0.2; Binding of serum 37 to linear peptides of protein N of SARS-CoV Urbani [1]: 0.7; Binding of serum 62 to linear peptides of protein N of SARS-CoV Urbani [1]: 0.6; Binding of serum London to linear peptides of protein N of SARS-CoV Urbani [1]: 0.6; Binding of serum SARS-green to linear peptides of protein N of SARS-CoV Urbani [1]: 0.3; Binding of serum SARS-yellow to linear peptides of protein N of SARS-CoV Urbani [1]: 0.5; Control Serum Blood-Bank Looped peptides [4]: 0.4; Control serum Blood-bank linear peptides [4]: 0.7; Control serum LUMC linear peptides [4]: 0.6; Control serum LUMC looped peptides [4]: 0.2
KELSPRWYFYYLGTG		0.4		0.2		0.4	0.3	0.7	0.5	0.4	0.4	0.3	0.1	0.3	0.7	0.4	0.4	0.6	0.0	0.4	Binding of serum 1a to linear peptides of protein N of SARS-CoV Urbani [1]: 0.2; Binding of serum 1b to linear peptides of protein N of SARS-CoV Urbani [1]: 0.1; Binding of serum 2 to linear peptides of protein N of SARS-CoV Urbani [1]: 0.1; Binding of serum 6 to linear peptides of protein N of SARS-CoV Urbani [1]: 0.1; Binding of serum 37 to linear peptides of protein N of SARS-CoV Urbani [1]: 0.4; Binding of serum 62 to linear peptides of protein N of SARS-CoV Urbani [1]: 0.4; Binding of serum London to linear peptides of protein N of SARS-CoV Urbani [1]: 0.4; Binding of serum SARS-green to linear peptides of protein N of SARS-CoV Urbani [1]: 0.1; Binding of serum SARS-yellow to linear peptides of protein N of SARS-CoV Urbani [1]: 0.5

Reference: patent US20070128217A1 (priority 2003, published 2007)
